Experimental data as given in the NIST ThermoML archive (doi:10.1016/j.jct.2011.07.018).

Assay: excess molar enthalpy (molar enthalpy of mixing); xn = mol fraction of the nth substance listed
Details: 298.15 K, 101 kPa, Liquid, isothermal titration calorimeter

CCCCCC(=O)O [hexanoic acid] + C[S+](C)[O-]
Details	excess molar enthalpy [kcal/mol]
x2 = 0.042	-0.0478
x2 = 0.081	-0.0963
x2 = 0.117	-0.144
x2 = 0.15	-0.189
x2 = 0.181	-0.233
x2 = 0.209	-0.275
x2 = 0.241	-0.322
x2 = 0.271	-0.365
x2 = 0.298	-0.405
x2 = 0.323	-0.441
x2 = 0.346	-0.473
x2 = 0.369	-0.502
x2 = 0.38	-0.514
x2 = 0.388	-0.523
x2 = 0.397	-0.533
x2 = 0.406	-0.541
x2 = 0.415	-0.55
x2 = 0.425	-0.557
x2 = 0.436	-0.565
x2 = 0.447	-0.571
x2 = 0.457	-0.575
x2 = 0.467	-0.579
x2 = 0.477	-0.582
x2 = 0.488	-0.583
x2 = 0.498	-0.582
x2 = 0.508	-0.58
x2 = 0.519	-0.577
x2 = 0.53	-0.572
x2 = 0.541	-0.564
x2 = 0.553	-0.556
x2 = 0.563	-0.547
x2 = 0.574	-0.537
x2 = 0.585	-0.525
x2 = 0.596	-0.512
x2 = 0.608	-0.497
x2 = 0.62	-0.482
x2 = 0.631	-0.468
x2 = 0.642	-0.452
x2 = 0.653	-0.436
x2 = 0.665	-0.419
x2 = 0.677	-0.401
x2 = 0.69	-0.382
x2 = 0.701	-0.366
x2 = 0.712	-0.349
x2 = 0.724	-0.332
x2 = 0.736	-0.314
x2 = 0.748	-0.296
x2 = 0.761	-0.277
x2 = 0.772	-0.261
x2 = 0.784	-0.244
x2 = 0.796	-0.227
x2 = 0.808	-0.209
x2 = 0.821	-0.192
x2 = 0.834	-0.174
x2 = 0.846	-0.159
x2 = 0.858	-0.143
x2 = 0.87	-0.128
x2 = 0.883	-0.112
x2 = 0.896	-0.097
x2 = 0.91	-0.0844
x2 = 0.922	-0.0691
x2 = 0.934	-0.0564
x2 = 0.943	-0.0442
x2 = 0.959	-0.0323
x2 = 0.973	-0.0208
x2 = 0.986	-0.01
